Assay results reported in paper PMC12751012, “Nanoscale Direct-to-Biology Optimization and Structural Insights into Selective S. aureus TrmD Inhibitors” (Journal of Medicinal Chemistry, 2025).

Target: T1, S. aureus TrmD (Staphylococcus aureus, UniProt Q2FZ43)
T1 construct: made in house; host or cells: E. coli BL21
T1 sequence (Q2FZ43 1-245): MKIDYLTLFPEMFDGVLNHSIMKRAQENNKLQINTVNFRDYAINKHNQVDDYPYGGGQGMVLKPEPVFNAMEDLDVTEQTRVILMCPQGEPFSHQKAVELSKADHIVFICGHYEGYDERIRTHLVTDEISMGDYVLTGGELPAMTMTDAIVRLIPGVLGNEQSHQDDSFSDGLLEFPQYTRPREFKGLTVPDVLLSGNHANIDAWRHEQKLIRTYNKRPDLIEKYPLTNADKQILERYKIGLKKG
Test: nanoSAR direct-to-biology FP displacement screening of crude triazoles
Assay type: binding
Conditions: crude triazole at 1 μM, assuming full conversion, 500 nM TrmD, 10 nM tracer 4; for inhibition at 1 µM: read-out: % displaced tracer
Procedure, shortened: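 Crude CuAAC triazoles from alkyne 7 and 320 diverse azides were screened by FP displacement of 10 nM tracer 4 from 500 nM S. aureus TrmD. Buffer was 40 mM Tris HCl, 100 mM NaCl, 10 mM MgCl2, 5% glycerol, pH 7.5.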

Row | SMILES | % displaced tracer [%] | inhibition at 1 µM [%]
1 | C[C@H](N)Cn1cc(-c2c[nH]c3nc[nH]c(=O)c23)nn1 [Compound 02F09, O=C1NC=NC2=C1C(C3=CN(C[C@@H](N)C)N=N3)=CN2] | 26 | –
2 | O=c1[nH]cnc2[nH]cc(-c3cn(C[C@@H]4COCCO4)nn3)c12 [Compound 03A10, O=C1NC=NC=2NC=C(C=3N=NN(C3)C[C@H]4OCCOC4)C12] | – | 57
3 | O=C1CC[C@@H](N2Cc3cc(-n4cc(-c5c[nH]c6nc[nH]c(=O)c56)nn4)ccc3C2=O)C(=O)N1 [Compound 01H08, O=C1N([C@H]2C(=O)NC(=O)CC2)Cc3c1ccc(N4N=NC(C=5C=6C(=O)NC=NC6NC5)=C4)c3] | – | 23
4 | O=c1[nH]cnc2[nH]cc(-c3cn(-c4ccc(CO)cc4)nn3)c12 [Compound 04B03, O=C1NC=NC=2NC=C(C=3N=NN(c4ccc(cc4)CO)C3)C12] | – | 47
5 | O=c1[nH]cnc2[nH]cc(-c3cn([C@H]4CCCNCC4)nn3)c12 [Compound 03A12, O=C1NC=NC=2NC=C(C=3N=NN(C3)[C@@H]4CC[NH2+]CCC4)C12] | – | 18
6 | CN(CCn1cc(-c2c[nH]c3nc[nH]c(=O)c23)nn1)Cc1cccc(F)c1 [Compound 02H12, Fc1cc(ccc1)C[N@H+](CCN2N=NC(C=3C=4C(=O)NC=NC4NC3)=C2)C] | – | 65
7 | O=c1[nH]cnc2[nH]cc(-c3cn(Cc4ccc(-n5cccn5)cc4)nn3)c12 [Compound 02E09, O=C1NC=NC=2NC=C(C=3N=NN(C3)Cc4ccc(N5N=CC=C5)cc4)C12] | – | 62
8 | CNC(=O)CCn1cc(-c2c[nH]c3nc[nH]c(=O)c23)nn1 [Compound 02H01, O=C1NC=NC=2NC=C(C=3N=NN(C3)CCC(=O)NC)C12] | – | 21
9 | O=c1[nH]cnc2[nH]cc(-c3cn(Cc4ccc(Cl)s4)nn3)c12 [Compound 04C02, ClC=1SC(=CC1)CN2N=NC(C=3C=4C(=O)NC=NC4NC3)=C2] | – | 92
10 | O=c1[nH]cnc2[nH]cc(-c3cn([C@@H]4CCOC5(CCNCC5)C4)nn3)c12 [Compound 01B07, O=C1NC=NC=2NC=C(C=3N=NN(C3)[C@H]4CC5(OCC4)CC[NH2+]CC5)C12] | – | 34
11 | N#Cc1ccc(-n2cc(-c3c[nH]c4nc[nH]c(=O)c34)nn2)cc1 [Compound 02D05, O=C1NC=NC=2NC=C(C=3N=NN(c4ccc(C#N)cc4)C3)C12] | – | 1.83
12 | O=c1[nH]cnc2[nH]cc(-c3cn(Cc4ccc(F)cc4F)nn3)c12 [Compound 02H03, Fc1c(ccc(F)c1)CN2N=NC(C=3C=4C(=O)NC=NC4NC3)=C2] | – | 49
13 | COC(=O)C1(n2cc(-c3c[nH]c4nc[nH]c(=O)c34)nn2)CC1 [Compound 03H06, O=C(OC)C1(N2N=NC(C=3C=4C(=O)NC=NC4NC3)=C2)CC1] | – | 24
14 | CCO[C@@H]1CCCC[C@H]1n1cc(-c2c[nH]c3nc[nH]c(=O)c23)nn1 [Compound 03D09, O=C1NC=NC=2NC=C(C=3N=NN(C3)[C@H]4[C@H](OCC)CCCC4)C12] | – | 25
15 | O=c1[nH]cnc2[nH]cc(-c3cn(C[C@H](O)c4ccc(Cl)cc4)nn3)c12 [Compound 02C04, Clc1ccc(cc1)[C@@H](O)CN2N=NC(C=3C=4C(=O)NC=NC4NC3)=C2] | – | 85
16 | O=c1[nH]cnc2[nH]cc(-c3cn(C4(c5ccc(F)cc5)CCOCC4)nn3)c12 [Compound 02C10, Fc1ccc(cc1)C2(N3N=NC(C=4C=5C(=O)NC=NC5NC4)=C3)CCOCC2] | – | 6
17 | O=c1[nH]cnc2[nH]cc(-c3cn(CC4CCCC4)nn3)c12 [Compound 03E11, O=C1NC=NC=2NC=C(C=3N=NN(C3)CC4CCCC4)C12] | – | 39
18 | O=c1[nH]cnc2[nH]cc(-c3cn(Cc4nc5ccccc5[nH]4)nn3)c12 [Compound 01B08, O=C1NC=NC=2NC=C(C=3N=NN(C3)CC4=Nc5c(N4)cccc5)C12] | – | 43
19 | O=c1[nH]cnc2[nH]cc(-c3cn(Cc4ccno4)nn3)c12 [Compound 04F02, O=C1NC=NC=2NC=C(C=3N=NN(C3)CC=4ON=CC4)C12] | – | 92
20 | Cc1cc(F)cc(-n2cc(-c3c[nH]c4nc[nH]c(=O)c34)nn2)c1 [Compound 03C04, Fc1cc(N2N=NC(C=3C=4C(=O)NC=NC4NC3)=C2)cc(c1)C] | – | 17
21 | O=c1[nH]cnc2[nH]cc(-c3cn(CCCOC4CCC4)nn3)c12 [Compound 01C08, O=C1NC=NC=2NC=C(C=3N=NN(C3)CCCOC4CCC4)C12] | – | 27
22 | Cc1ccc(-n2cc(-c3c[nH]c4nc[nH]c(=O)c34)nn2)cc1Cl [Compound 02B03, Clc1c(ccc(N2N=NC(C=3C=4C(=O)NC=NC4NC3)=C2)c1)C] | – | 0.61
23 | COCC(COC)n1cc(-c2c[nH]c3nc[nH]c(=O)c23)nn1 [Compound 03D06, O=C1NC=NC=2NC=C(C=3N=NN(C3)C(COC)COC)C12] | – | 24
24 | C[C@@H](CN)n1cc(-c2c[nH]c3nc[nH]c(=O)c23)nn1 [Compound 03C02, O=C1NC=NC=2NC=C(C=3N=NN(C3)[C@H](C[NH3+])C)C12] | – | 40

Row | SMILES | % displaced tracer [%] | inhibition at 1 µM [%]
25 | O=c1[nH]cnc2[nH]cc(-c3cn(Cc4cc(C(F)(F)F)on4)nn3)c12 [Compound 01H04, FC(F)(F)C=1ON=C(C1)CN2N=NC(C=3C=4C(=O)NC=NC4NC3)=C2] | – | 22
26 | O=c1[nH]cnc2[nH]cc(-c3cn([C@@H]4CC[C@H]4F)nn3)c12 [Compound 04C04, F[C@H]1[C@H](N2N=NC(C=3C=4C(=O)NC=NC4NC3)=C2)CC1] | – | 21
27 | O=c1[nH]cnc2[nH]cc(-c3cn(C4COC4)nn3)c12 [Compound 03G09, O=C1NC=NC=2NC=C(C=3N=NN(C3)C4COC4)C12] | – | 19
28 | COc1ccc(Cn2cc(-c3c[nH]c4nc[nH]c(=O)c34)nn2)cc1 [Compound 02E05, O=C1NC=NC=2NC=C(C=3N=NN(C3)Cc4ccc(OC)cc4)C12] | – | 78
29 | C[C@@H](O)Cn1cc(-c2c[nH]c3nc[nH]c(=O)c23)nn1 [Compound 04A01, O=C1NC=NC=2NC=C(C=3N=NN(C3)C[C@H](O)C)C12] | – | 15
30 | N#CC1(Cn2cc(-c3c[nH]c4nc[nH]c(=O)c34)nn2)CCCC1 [Compound 01F01, O=C1NC=NC=2NC=C(C=3N=NN(C3)CC4(C#N)CCCC4)C12] | – | 74
31 | CC1(Cn2cc(-c3c[nH]c4nc[nH]c(=O)c34)nn2)COC1 [Compound 01H02, O=C1NC=NC=2NC=C(C=3N=NN(C3)CC4(COC4)C)C12] | – | 58
32 | CC(C)(C)OC(=O)NC[C@@]1(Cn2cc(-c3c[nH]c4nc[nH]c(=O)c34)nn2)CC12CCC2 [Compound 02E10, O=C(OC(C)(C)C)NC[C@@]1(C2(C1)CCC2)CN3N=NC(C=4C=5C(=O)NC=NC5NC4)=C3] | – | 23
33 | NC(=O)C1(n2cc(-c3c[nH]c4nc[nH]c(=O)c34)nn2)CC1 [Compound 04H02, O=C1NC=NC=2NC=C(C=3N=NN(C3)C4(C(=O)N)CC4)C12] | – | 33
34 | O=c1[nH]cnc2[nH]cc(-c3cn(-c4cccc5cnccc45)nn3)c12 [Compound 01D05, O=C1NC=NC=2NC=C(C=3N=NN(c4c5c(cncc5)ccc4)C3)C12] | – | 16
35 | CCc1nnc(Cn2cc(-c3c[nH]c4nc[nH]c(=O)c34)nn2)o1 [Compound 01D06, O=C1NC=NC=2NC=C(C=3N=NN(C3)CC=4OC(=NN4)CC)C12] | – | 31
36 | COC(=O)[C@@H]1CCC[C@H](n2cc(-c3c[nH]c4nc[nH]c(=O)c34)nn2)C1 [Compound 01D01, O=C(OC)[C@H]1C[C@@H](N2N=NC(C=3C=4C(=O)NC=NC4NC3)=C2)CCC1] | – | 33
37 | CCN(CC)CCn1cc(-c2c[nH]c3nc[nH]c(=O)c23)nn1 [Compound 01H09, O=C1NC=NC=2NC=C(C=3N=NN(C3)CC[NH+](CC)CC)C12] | – | 27
38 | O=c1[nH]cnc2[nH]cc(-c3cn(CCCN4CCC(C(F)(F)F)CC4)nn3)c12 [Compound 02D01, FC(F)(F)[C@@H]1CC[N@H+](CC1)CCCN2N=NC(C=3C=4C(=O)NC=NC4NC3)=C2] | – | 23
39 | O=c1[nH]cnc2[nH]cc(-c3cn(-c4ccc5nccnc5c4)nn3)c12 [Compound 02B02, O=C1NC=NC=2NC=C(C=3N=NN(c4cc5nccnc5cc4)C3)C12] | – | 8.54
40 | NCCOCCn1cc(-c2c[nH]c3nc[nH]c(=O)c23)nn1 [Compound 02F12, O=C1NC=NC=2NC=C(C=3N=NN(C3)CCOCC[NH3+])C12] | – | 39
41 | O=c1[nH]cnc2[nH]cc(-c3cn(Cc4noc5c4CCC5)nn3)c12 [Compound 01C04, O=C1NC=NC=2NC=C(C=3N=NN(C3)CC4=NOC5=C4CCC5)C12] | – | 41
42 | COC(=O)c1cc(-n2cc(-c3c[nH]c4nc[nH]c(=O)c34)nn2)ccn1 [Compound 03F03, O=C(OC)c1nccc(N2N=NC(C=3C=4C(=O)NC=NC4NC3)=C2)c1] | – | 10
43 | CC(C)NC(=O)[C@H](C)n1cc(-c2c[nH]c3nc[nH]c(=O)c23)nn1 [Compound 03H02, O=C1NC=NC=2NC=C(C=3N=NN(C3)[C@H](C(=O)NC(C)C)C)C12] | – | 17
44 | CCOP(=O)(CCCn1cc(-c2c[nH]c3nc[nH]c(=O)c23)nn1)OCC [Compound 01H12, P(=O)(OCC)(OCC)CCCN1N=NC(C=2C=3C(=O)NC=NC3NC2)=C1] | – | 33
45 | O=c1[nH]cnc2[nH]cc(-c3cn(-c4ccccc4-c4ccccc4)nn3)c12 [Compound 01E12, O=C1NC=NC=2NC=C(C=3N=NN(c4c(c5ccccc5)cccc4)C3)C12] | – | 34
46 | COc1ccc(-n2cc(-c3c[nH]c4nc[nH]c(=O)c34)nn2)cc1 [Compound 02H08, O=C1NC=NC=2NC=C(C=3N=NN(c4ccc(OC)cc4)C3)C12] | – | 9
47 | COc1cccc(-n2cc(-c3c[nH]c4nc[nH]c(=O)c34)nn2)c1 [Compound 03G01, O=C1NC=NC=2NC=C(C=3N=NN(c4cc(OC)ccc4)C3)C12] | – | 11
